# Measurements taken from patent US20050095305A1, “Anti-aging agents” (priority 2001, published 2005).
# Columns and labels:
# Format in all cases: biochemical
# [1] = Activity against free radicals, Method A (DPPH° test); settings: optical density at 513 nm
# Method: (§1) The effectiveness of the test substances against free radicals was tested by various chemical and biochemical methods: • Method A A first test was carried out using diphenylpicrylhydrazyl (DPPH°) which is a relatively stable radical that forms a purple-colored solution. The optical density (DO) at 513 nm was determined. • Method B Hydroxyl radicals were released from hydrogen peroxide in the presence of iron(II) ions and EDTA and were used to oxidize deoxyribose. The oxidation product forms a pink-colored compound with thiobarbituric acid. Its concentration corresponds to the optical density at 532 nm. […] The superoxide anions dismute into hydrogen peroxide and oxygen either spontaneously or in the presence of Superoxid Dismutase. The quantity of superoxide anion can be determined by NBT reduction via the optical density at 490 nm. A test was conducted to determine whether fewer superoxide anions are generated or more anions are destroyed in the presence of the test substances. The results are set out in Table 1 and represent the EC50 values in % (w/v).
# [2] = Activity against free radicals, Method D (xanthine oxidase, NBT reduction); settings: optical density at 490 nm
# Method: as §1
# [3] = Activity against free radicals, Method B (hydroxyl radicals, deoxyribose oxidation with EDTA); settings: hydrogen peroxide, iron(II) ions and EDTA, optical density at 532 nm
# Method: as §1
# [4] = Activity against free radicals, Method C (deoxyribose oxidation in the absence of EDTA); settings: as Method B in the absence of EDTA
# Method: as §1
Molecule,"Effect against free radicals, Method A, EC50 [1]","Effect against free radicals, Method D, EC50 [2]","Effect against free radicals, Method B, EC50 [3]","Effect against free radicals, Method C, EC50 [4]"
Tocopherol,0.0067 % (w/v),No effect,,
O=C1O[C@H]([C@@H](O)CO)C(O)=C1O [Ascorbic acid],0.0013 % (w/v),0.591 % (w/v),0.261 % (w/v),0.9 % (w/v)
